Results published in the supplement of paper PMC11208160.

Assay: recombinant barcode read abundance after kanamycin selection (control-corrected) (log10(CPM+1)); higher = more efficient recombination; sequences stand for … in AGTGCAGAGAAAATCGGCCAGTTTTCTCTGCCTGCAGTCCGCATGCCGT…AGATTTATGCAGCGGACTGCCTTTCTCCCAAAGTGATAAACCGGACAGTATCATGGACCGGTTTTCCCGGTAATCCGTATTTGCAAGGTTGGTTTCACT; site = the 11-nt target
Method: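 Pooled E. coli target-specificity screen for the IS621 bridge recombinase. Each library plasmid pairs an 11-nt target (CT core) with a bridge RNA whose target-binding loop (9-nt LTG + 4-nt RTG) is reprogrammed; the rest of the 177-nt WT IS621 bridge RNA scaffold is fixed. The plasmid is co-electroporated with a WT donor plasmid; recombinase is induced with 0.1 mM IPTG and recombinants are selected on kanamycin. Recombinant barcodes are sequenced, converted to CPM, averaged over two biological replicates and corrected by the unselected control CPM. Molecule = full bridge RNA written as DNA: LTG = specificity nt 1-9, RTG = reverse complement of specificity nt 8-11, in the WT scaffold.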
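Further: IS621 recombinase and bridge RNA in Escherichia coli cells.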

ACTAGGACTTGGGTTCTAACCTGTTGCAG (site ACTAGAACTTT)
recombinant barcode read abundance (log10): 0.0381

ACTAGGACTTGGGTTCTAACCTGTTGCAG (site ACTAGGACTCT)
recombinant barcode read abundance (log10): 2.49

ACTAGGACTTGGGTTCTAACCTGTTGCGC (site ACTAGGACTAC)
recombinant barcode read abundance (log10): 0.571

ACTAGGACTTGGGTTCTAACCTGTTGCGC (site ACTAGGACTCC)
recombinant barcode read abundance (log10): 0.478

ACTAGGACTTGGGTTCTAACCTGTTGCGC (site ACTAGGACTGC)
recombinant barcode read abundance (log10): 2.3

ACTAGGACTTGGGTTCTAACCTGTTGCGC (site ACTAGGACTTC)
recombinant barcode read abundance (log10): 0.0123

ACTCACCCTTGGGTTCTAACCTGTTGCGG (site ACTCACCCTCC)
recombinant barcode read abundance (log10): 2.62

ACTCACCCTTGGGTTCTAACCTGTTGCGG (site CTATTAACTTA)
recombinant barcode read abundance (log10): 0.126

ACTCCGTCTTGGGTTCTAACCTGTTGCCT (site ACTCCGTCTAG)
recombinant barcode read abundance (log10): 1.28

ACTCCGTCTTGGGTTCTAACCTGTTGCCT (site ACTGCGTCTAG)
recombinant barcode read abundance (log10): 0.109

ACTCGATCTTGGGTTCTAACCTGTTGCCT (site ACTCGATCTAG)
recombinant barcode read abundance (log10): 0.595

ACTCGATCTTGGGTTCTAACCTGTTGCCT (site AGTCGATCTAA)
recombinant barcode read abundance (log10): 0.0189

ACTCGGCCTTGGGTTCTAACCTGTTGCCT (site ACTCGGCCTAC)
recombinant barcode read abundance (log10): 0.0497

ACTCGGCCTTGGGTTCTAACCTGTTGCCT (site ACTCGGCCTAG)
recombinant barcode read abundance (log10): 1.45

ACTCGTCCTTGGGTTCTAACCTGTTGCTA (site ACTCGTCCTTA)
recombinant barcode read abundance (log10): 0.584

ACTCGTCCTTGGGTTCTAACCTGTTGCTA (site GAGAAGACTAC)
recombinant barcode read abundance (log10): 0.0362

ACTGATACTTGGGTTCTAACCTGTTGCCT (site ACTGATACTAG)
recombinant barcode read abundance (log10): 1.84

ACTGATACTTGGGTTCTAACCTGTTGCCT (site ACTGATCCTAG)
recombinant barcode read abundance (log10): 0.0466

ACTGATACTTGGGTTCTAACCTGTTGCCT (site ACTGATGCTAG)
recombinant barcode read abundance (log10): 0.313

ACTGATACTTGGGTTCTAACCTGTTGCCT (site ACTGATTCTAG)
recombinant barcode read abundance (log10): 0.241

ACTGATCCTTGGGTTCTAACCTGTTGCAT (site ACTGATCCTAT)
recombinant barcode read abundance (log10): 2.35

ACTGATCCTTGGGTTCTAACCTGTTGCAT (site TTCTTAACTCC)
recombinant barcode read abundance (log10): 0.00751

ACTGATCCTTGGGTTCTAACCTGTTGCCT (site ACTGATACTAG)
recombinant barcode read abundance (log10): 0.00756

ACTGATCCTTGGGTTCTAACCTGTTGCCT (site ACTGATCCTAG)
recombinant barcode read abundance (log10): 2.1

ACTGATCCTTGGGTTCTAACCTGTTGCCT (site ACTGATGCTAG)
recombinant barcode read abundance (log10): 0.671

ACTGATCCTTGGGTTCTAACCTGTTGCCT (site ACTGATTCTAG)
recombinant barcode read abundance (log10): 0.0263

ACTGGGTCTTGGGTTCTAACCTGTTGCGT (site ACATGGTCTAC)
recombinant barcode read abundance (log10): 0.254

ACTGGGTCTTGGGTTCTAACCTGTTGCGT (site ACTGGGTCTAC)
recombinant barcode read abundance (log10): 2.66

ACTGGGTCTTGGGTTCTAACCTGTTGCTT (site ACTGAGTCTAA)
recombinant barcode read abundance (log10): 0.782

ACTGGGTCTTGGGTTCTAACCTGTTGCTT (site ACTGGGTCTAA)
recombinant barcode read abundance (log10): 1.41

ACTGGTACTTGGGTTCTAACCTGTTGCCT (site ACGGGTACTAG)
recombinant barcode read abundance (log10): 0.161

ACTGGTACTTGGGTTCTAACCTGTTGCCT (site ACTGGTACTAG)
recombinant barcode read abundance (log10): 1.22

ACTGGTCCTTGGGTTCTAACCTGTTGCGG (site ACTGGTCCTCC)
recombinant barcode read abundance (log10): 2.93

ACTGGTCCTTGGGTTCTAACCTGTTGCGG (site GACATATCTAA)
recombinant barcode read abundance (log10): 0.0953

ACTTAGACTTGGGTTCTAACCTGTTGCCA (site ACTTAGACTAG)
recombinant barcode read abundance (log10): 0.502

ACTTAGACTTGGGTTCTAACCTGTTGCCA (site ACTTAGACTCG)
recombinant barcode read abundance (log10): 0.408

ACTTAGACTTGGGTTCTAACCTGTTGCCA (site ACTTAGACTGG)
recombinant barcode read abundance (log10): 0.0414

ACTTAGACTTGGGTTCTAACCTGTTGCCA (site ACTTAGACTTG)
recombinant barcode read abundance (log10): 0.363

ACTTAGACTTGGGTTCTAACCTGTTGCCG (site ACTTAGACTAG)
recombinant barcode read abundance (log10): 0.287

ACTTAGACTTGGGTTCTAACCTGTTGCCG (site ACTTAGACTCG)
recombinant barcode read abundance (log10): 1.29

ACTTAGACTTGGGTTCTAACCTGTTGCCG (site ACTTAGACTGG)
recombinant barcode read abundance (log10): 0.159

ACTTAGACTTGGGTTCTAACCTGTTGCCG (site ACTTAGACTTG)
recombinant barcode read abundance (log10): 0.129

ACTTAGTCTTGGGTTCTAACCTGTTGCTA (site ACATAGTCTCA)
recombinant barcode read abundance (log10): 0.178

ACTTAGTCTTGGGTTCTAACCTGTTGCTA (site ACTTAGTCTTA)
recombinant barcode read abundance (log10): 0.277

ACTTGAGCTTGGGTTCTAACCTGTTGCAG (site ACTTGAGCTCT)
recombinant barcode read abundance (log10): 1.48

ACTTGAGCTTGGGTTCTAACCTGTTGCAG (site CACGCTCCTAC)
recombinant barcode read abundance (log10): 0.167

ACTTGTACTTGGGTTCTAACCTGTTGCAT (site ACTTGGACTAT)
recombinant barcode read abundance (log10): 0.0152

ACTTGTACTTGGGTTCTAACCTGTTGCAT (site ACTTGTACTAT)
recombinant barcode read abundance (log10): 1.22

ACTTTACCTTGGGTTCTAACCTGTTGCCT (site ACTTTACCTAG)
recombinant barcode read abundance (log10): 0.188

ACTTTACCTTGGGTTCTAACCTGTTGCCT (site CCTTTACCTAG)
recombinant barcode read abundance (log10): 0.324

ACTTTACCTTGGGTTCTAACCTGTTGCCT (site GCTTTACCTAG)
recombinant barcode read abundance (log10): 0.0495

ACTTTACCTTGGGTTCTAACCTGTTGCCT (site TCTTTACCTAG)
recombinant barcode read abundance (log10): 0.186

AGAACACCTTGGGTTCTAACCTGTTGCTT (site AGAACACCTAA)
recombinant barcode read abundance (log10): 0.525

AGAACACCTTGGGTTCTAACCTGTTGCTT (site GAGGAGTCTCG)
recombinant barcode read abundance (log10): 0.13

AGAACTACTTGGGTTCTAACCTGTTGCCT (site AGAACTACTAG)
recombinant barcode read abundance (log10): 0.384

AGAACTACTTGGGTTCTAACCTGTTGCCT (site AGGACTACTAG)
recombinant barcode read abundance (log10): 0.162

AGAACTCCTTGGGTTCTAACCTGTTGCGA (site AGAACTCCTTC)
recombinant barcode read abundance (log10): 1.03

AGAACTCCTTGGGTTCTAACCTGTTGCGA (site CTGGAGACTAA)
recombinant barcode read abundance (log10): 0.42

AGAAGATCTTGGGTTCTAACCTGTTGCCT (site AGAAGATCTAG)
recombinant barcode read abundance (log10): 0.706

AGAAGATCTTGGGTTCTAACCTGTTGCCT (site TACCTTACTCT)
recombinant barcode read abundance (log10): 0.0563

AGAAGTCCTTGGGTTCTAACCTGTTGCAG (site AGAAGTCCTCA)
recombinant barcode read abundance (log10): 0.83

AGAAGTCCTTGGGTTCTAACCTGTTGCAG (site AGAAGTCCTCC)
recombinant barcode read abundance (log10): 0.246

AGAAGTCCTTGGGTTCTAACCTGTTGCAG (site AGAAGTCCTCG)
recombinant barcode read abundance (log10): 0.366

AGAAGTCCTTGGGTTCTAACCTGTTGCAG (site AGAAGTCCTCT)
recombinant barcode read abundance (log10): 1.56

AGAATCCCTTGGGTTCTAACCTGTTGCAT (site AGAATCCCTAT)
recombinant barcode read abundance (log10): 1.49

AGAATCCCTTGGGTTCTAACCTGTTGCAT (site ATAAACCCTAT)
recombinant barcode read abundance (log10): 0.0539

AGACAGTCTTGGGTTCTAACCTGTTGCCA (site AGACAGTCTTG)
recombinant barcode read abundance (log10): 0.311

AGACAGTCTTGGGTTCTAACCTGTTGCCA (site GACTGAGCTCC)
recombinant barcode read abundance (log10): 0.0895

AGACGTACTTGGGTTCTAACCTGTTGCCT (site AGACGTACTAG)
recombinant barcode read abundance (log10): 1.65

AGACGTACTTGGGTTCTAACCTGTTGCCT (site AGCCGTACTAG)
recombinant barcode read abundance (log10): 0.102

AGACGTACTTGGGTTCTAACCTGTTGCCT (site AGGCGTACTAG)
recombinant barcode read abundance (log10): 0.128

AGACGTACTTGGGTTCTAACCTGTTGCCT (site AGTCGTACTAG)
recombinant barcode read abundance (log10): 0.0904

AGACGTCCTTGGGTTCTAACCTGTTGCTT (site AGACATCCTAA)
recombinant barcode read abundance (log10): 0.197
